This note sets out measurements from ChEMBL document CHEMBL1135712, “Structure-activity relationships for pyrido-, imidazo-, pyrazolo-, pyrazino-, and pyrrolophenazinecarboxamides as topoisomerase-targeted anticancer agents” (J Med Chem, 2002).

A short description of experiment [1]: Ratio of IC50 in the cell -doxorubicin-resistant Jurkat (JL D) / JL C. The experiment is classed as functional.
The subject of experiment [2] is NCI-H69. Put plainly: Inhibitory activity against parental human small cell lung carcinoma cell line (H69P). The experiment is classed as functional, cell-based.
Experiment [3] in a line: Inhibitory concentration to reduce cell number to 50% in a panel of cultured, wild type human Jurkat leukemia (JL C) cells. The experiment is classed as functional, cell-based.
A short description of experiment [4]: Ratio of IC50 in the cell -amsacrine-resistant Jurkat (JL A) / JL C. The experiment is classed as functional.
In a further experiment the test system is P388 (Mus musculus). Put plainly: Inhibitory concentration to reduce cell number to 50% in a panel of cultured, murine P388 leukemia (P388) cells.
Experiment [5] concerns NCI-H69. Put plainly: Inhibitory activity against drug resistant H69/LX4 line overexpressing P-glycoprotein. To be noted: Homo sapiens. The experiment is classed as functional, cell-based.
The test system of experiment [6] is Lewis lung carcinoma cell line. Put plainly: Inhibitory concentration to reduce cell number to 50% in a panel of cultured, murine Lewis lung carcinoma (LL) cells. The experiment is classed as functional, cell-based. Conditions: Mus musculus.
The next experiment concerns P388. Put plainly: Inhibitory activity against murine P388 leukemia (P388) cells. The experiment is classed as functional, cell-based. Conditions: Mus musculus.

Regarding `CN(C)CCNC(=O)c1cccc2nc3ccc4c(cnn4C)c3nc12`, the Ratio in experiment [1] and in experiment [4] was 0.8 throughout. Further, the IC50 in the experiment with NCI-H69 [2] was found to be 130 nM; in experiment [3] it was 98 nM; with P388 (Mus musculus), 59 nM; in the experiment on NCI-H69 [5] (read-out: IC50) it was 1.2 nM; in experiment [6], 25 nM.
For `CN(C)CCNC(=O)c1cccc2nc3ccc4ncccc4c3nc12`, the Ratio in experiment [1] was determined as 0.7; in experiment [4], 0.8. In addition, the IC50 with P388 turned out to be 42 nM; in the experiment on NCI-H69 [2], 124 nM; in experiment [3] it was 74 nM; with NCI-H69 [5] (read-out: IC50) it was 1.2 nM; in experiment [6], 20 nM.
As to `CN(C)CCNC(=O)c1cccc2nc3ccc4c(ccn4C)c3nc12`, the IC50 in the experiment on P388 was determined as 220 nM; in the experiment on NCI-H69 [2], 183 nM; in the experiment on NCI-H69 [5] (read-out: IC50), 1.7 nM.
Turning to `COc1cccc2c1C(=O)c1c(O)c3c(c(O)c1C2=O)C[C@@](O)(C(=O)CO)C[C@@H]3O[C@H]1C[C@H](N)[C@H](O)[C@H](C)O1` [DOXORUBICIN], the figures for the IC50 (in experiment [3]; in the experiment on NCI-H69 [5]) were 9.6 nM and 137 nM, respectively.
On to `CN(C)CCNC(=O)c1cccc2nc3ccc4c(O)nccc4c3nc12`, for which the figures for the IC50 in the experiment with P388, in the experiment with NCI-H69 [2] and in the experiment with NCI-H69 [5] (read-out: IC50) were 31 nM, 133 nM and 1.05 nM, respectively.
Take `CN(C)CCNC(=O)c1cccc2nc3ccc4ccccc4c3nc12`: the Ratio is listed as 0.9 in experiment [1] and 0.8 in experiment [4]. Further, the half-maximal inhibitory concentration (IC50) was determined as 37 nM in the experiment on P388; 67 nM in the experiment with NCI-H69 [2]; 93 nM in experiment [3]; 1.9 nM with NCI-H69 [5] (read-out: IC50); 23 nM in experiment [6].
As to `CN(C)CCNC(=O)c1cccc2nc3ccc4[nH]cnc4c3nc12`, the Ratio in experiment [1] is reported as 0.9; in experiment [4], 0.8. Also, the IC50 with P388 was 300 nM; in the experiment on NCI-H69 [2], 183 nM; in experiment [3] it was 159 nM; with NCI-H69 [5] (read-out: IC50) it was 5.2 nM; in experiment [6] it was 41 nM.
Take `COc1nccc2c1ccc1nc3cccc(C(=O)N[C@H](CO)CN(C)C)c3nc12`: the IC50 in the experiment on NCI-H69 [2] worked out at 24 nM; in the experiment on NCI-H69 [5] (read-out: IC50), 1.2 nM.
As to `CN(C)CCNC(=O)c1cccc2nc3ccc4cccnc4c3nc12`, the Ratio in experiment [1] turned out to be 0.9; in experiment [4] it was 0.7. The IC50 in the experiment on NCI-H69 [2] stood at 294 nM; in experiment [3], 317 nM; with NCI-H69 [5] (read-out: IC50) it was 2.1 nM; in experiment [6] it was 89 nM.
Regarding `CN(C)CCNC(=O)c1cccc2nc3ccc4cnccc4c3nc12`, the Ratio in experiment [1] is listed as 2.8; in experiment [4], 3. In addition, the IC50 in the experiment on P388 stood at 5.6 nM; with NCI-H69 [2] it was 88 nM; in experiment [3], 28 nM; in the experiment on NCI-H69 [5] (read-out: IC50) it was 0.64 nM; in experiment [6], 6.4 nM.
As to `COc1cccc2c1ccc1nc3cccc(C(=O)NCCN(C)C)c3nc12`, the IC50 was found to be 9.4 nM in the experiment with P388, 35 nM in the experiment with NCI-H69 [2] and 1.4 nM in the experiment with NCI-H69 [5] (read-out: IC50).
On to `COc1cccc2c1ccc1nc3cccc(C(=O)N[C@H](C)CN(C)C)c3nc12`, for which the IC50 in the experiment on P388 was determined as 10 nM; in the experiment with NCI-H69 [2], 23 nM; in the experiment with NCI-H69 [5] (read-out: IC50) it was 1.2 nM.
Regarding `COc1nccc2c1ccc1nc3cccc(C(=O)N[C@H](C)CN(C)C)c3nc12`, the results for the IC50 in the experiment with NCI-H69 [2] and in the experiment with NCI-H69 [5] (read-out: IC50) were 24 nM and 1.2 nM, respectively.
With `COc1ccnc2c1ccc1nc3cccc(C(=O)NCCN(C)C)c3nc12`, the figures for the IC50 in the experiment on NCI-H69 [2] and in the experiment on NCI-H69 [5] (read-out: IC50) were 123 nM and 3.2 nM, respectively.
For the compound `CN(C)CCNC(=O)c1cccc2nc3ccccc3nc12`, the Ratio in experiment [1] stood at 1; in experiment [4] it was 0.8. In addition, the IC50 with P388 amounted to 1100 nM; in experiment [3], 2500 nM; in experiment [6], 1850 nM.
For the compound `CN(C)CCNC(=O)c1cccc2nc3ccc4c(O)ccnc4c3nc12`, the values for the IC50 in the experiment with P388, in the experiment on NCI-H69 [2] and in the experiment on NCI-H69 [5] (read-out: IC50) were 2700 nM, 2100 nM and over 4 nM, respectively.
On to `CN(C)CCNC(=O)c1cccc2nc3ccc4nccnc4c3nc12`, for which the Ratio is 0.9 in experiment [1] and 1 in experiment [4]. In addition, the IC50 in the experiment with P388 was found to be 85 nM; with NCI-H69 [2] it was 234 nM; in experiment [3], 165 nM; in the experiment with NCI-H69 [5] (read-out: IC50), 1.5 nM; in experiment [6], 54 nM.
Regarding `CN(C)CCNC(=O)c1cccc2nc3ccc4ccncc4c3nc12`, the figures for the Ratio in experiment [1] and in experiment [4] were 1 and 0.8, respectively. Besides, the IC50 in the experiment on P388 came to 16 nM; in the experiment with NCI-H69 [2], 116 nM; in experiment [3], 79 nM; with NCI-H69 [5] (read-out: IC50) it was 1.3 nM; in experiment [6], 11 nM.
Consider `COc1nccc2c1ccc1nc3cccc(C(=O)NCCN(C)C)c3nc12`, for which the Ratio in experiment [1] and in experiment [4] was 0.7 throughout. Moreover, the 50% inhibitory concentration (IC50) in the experiment with P388 is 14 nM; with NCI-H69 [2] it was 21 nM; in experiment [3], 17 nM; in the experiment with NCI-H69 [5] (read-out: IC50), 1.2 nM; in experiment [6], 2.4 nM.
For `CN(C)CCNC(=O)c1cccc2nc3ccc4c[nH]nc4c3nc12`, the 50% inhibitory concentration (IC50) in the experiment on P388 was 98 nM; in the experiment with NCI-H69 [2], 524 nM; in experiment [3] it was 194 nM; in the experiment with NCI-H69 [5] (read-out: IC50), 0.95 nM; in experiment [6] it was 66 nM. Moreover, the Ratio in experiment [4] was 1.1.
For `CN(C)CCNC(=O)c1cccc2nc3ccc4[nH]ncc4c3nc12`, the results for the Ratio in experiment [1] and in experiment [4] were 4.7 and 4.2, respectively. Moreover, the IC50 in the experiment on P388 worked out at 6.8 nM; in the experiment on NCI-H69 [2] it was 107 nM; in experiment [3], 21 nM; in the experiment with NCI-H69 [5] (read-out: IC50) it was 4.5 nM; in experiment [6] it was 4.1 nM.
For the compound `CN(C)CCNC(=O)c1cccc2nc3ccc4cnn(C)c4c3nc12`, the Ratio in experiment [1] was found to be 1.1; in experiment [4], 1. Moreover, the IC50 was 8.4 nM with P388; 109 nM in the experiment on NCI-H69 [2]; 44 nM in experiment [3]; 0.92 nM with NCI-H69 [5] (read-out: IC50); 5.9 nM in experiment [6].

The term IC50 denotes the concentration needed to halve the response being measured.
